Columns and labels:
[1] = test system: pancreatic organoids derived from BRCA2 gene-deleted mice (Brca2^F11/F11; CreER™); assay: Drug responsiveness of pancreatic organoids with normal or exon 11-deleted BRCA2, observed with an inverted microscope; type: cell-based, mouse; settings: alone or in combination with 200 nM TSA, with vs without BRCA2 exon 11 deletion, FIG. 6
Procedure: With reference to the method of Example 2 above, pancreatic organoids derived from BRCA2 gene-deleted mice (Brca2^F11/F11; CreER™) were prepared. To induce a partial deletion of BRCA2 gene (deletion of exon 11 of BRCA2 gene), 4-hydroxytamoxifen (4-OHT) was added to the organoids in an amount of 400 nM, and the resulting organoids were cultured for 3 weeks or more (see Example 2). For comparison, organoids not treated with 4-OHT (in which BRCA2 gene is normal) were also prepared.
Organoids having normal BRCA2 gene (not treated with 4-OHT) and organoids with a partial deletion of BRCA2 (exon 11 deletion) were seeded in equal amounts into 24-well plates. On the day after seeding, the organoids were treated with a mixture of the anticancer agent histone deacetylase inhibitor (HDACi) and a culture medium (see Example 2).
3 days after treatment (first treatment) with HDACi, the culture medium was replaced with a fresh medium, and treatment (second treatment) with each HDACi was performed again at the concentration shown in Table 3. Here, the primary treatment with HDACi was performed about 24 to 48 hours after seeding of the organoids, and 3 days after that, the second treatment was performed.

[2] = test system: mouse-derived normal organoids; assay: p53 expression level by Western blot, normal organoids; type: cell-based; settings: two treatments 72 hours apart, day 5 after primary treatment; FIG. 15
Procedure: (§1) The mouse-derived organoids described in Examples 1 to 7 or patient-derived organoids were primarily treated with a drug, and after 72 hours, secondarily treated with the drug. As the drug, Resveratrone used in Examples 9 and 10 was used. On day 2 after the secondary drug treatment (day 5 after the primary drug treatment), the cell culture medium was removed, and then the cells were washed with 1 ml of PBS. After removal of PBS, the cells were mechanically dissociated with 500 μl of a recovery solution. The cell solution was agitated at 50 to 70 rpm at 4° C. for 1 hour, transferred into a microtube, and then centrifuged at 1200 rpm for 5 minutes, followed by removal of the supernatant. The remaining pellet was lysed with NETN buffer, and then sonicated using a sonicator for 1 minute with an output of 2 to 3 and centrifuged at 12,000 rpm for 20 to 30 minutes, and the supernatant was collected. The supernatant was quantified to 100 to 120 μg using Bradford assay, and then loaded onto a 10% polyacrylamide gel, followed by SD S-PAGE (Sodium Dodecyl Sulfate-Polyacrylamide gel electrophoresis) gel running. Then, the gel was transferred to a nitrocellulose membrane, and the transferred membrane was blocked with 5% skim milk while stirring at 50 rpm for 1 hour at RT. […]

[3] = test system: mutant organoids (cancer-like); assay: p53 expression level by Western blot, mutant organoids; type: cell-based, mouse; settings: two treatments 72 hours apart, day 5 after primary treatment; FIG. 15
Procedure: as §1

[4] = test system: pancreatic organoids from Kras^G12D mutant mice; type: cell-based, mouse; settings: FIG. 14A
Procedure: The organoids were treated with 0 μM, 200 μM or 500 μM of the drug, followed by analysis of GFP (see FIG. 14A).

[5] = test system: patient-derived organoids; assay: p53 expression level by Western blot, patient-derived organoids; type: cell-based, human; settings: two treatments 72 hours apart, day 5 after primary treatment; FIG. 15
Procedure: as §1

[6] = test system: normal pancreatic organoids; assay: Effect of Resveratrone on normal organoids; type: cell-based, mouse; settings: 0, 200 or 500 μM
Procedure: Pancreatic tissue isolated from the genetically mutated mice described in Examples 1 to 7 above was dissociated. Cell pellets containing ductal cells were collected from the dissociated pancreatic tissue. The collected cell pellets were grown with a biomatrix in a cell incubator at 37° C. under 5% CO2. Thereafter, the produced organoids were grown in an organoid culture medium until 75% or more thereof grew to a diameter of 200 to 500 μm. […] The organoids were treated with a drug diluted in an organoid culture medium. […] As a result of the measurement, it could be confirmed that, when the above-described drug treatment method was used, it was possible to track the drug responsiveness of each organoid, which was a limitation of a conventional drug screening method using organoids, and drug treatment in a uniform size state was possible. […] As the maximum value of the average diameter of the collected organoids increases, the difference in size (average diameter) between the organoids included increases, so that the difference in responsiveness to the same drug between the organoids increases. Thus, in order to obtain a uniform drug responsiveness result, it is important to determine the upper limit of the size (average diameter) of the organoids. […]

CC[C@@H]1C(=O)N(C)c2cnc(Nc3ccc(C(=O)NC4CCN(C)CC4)cc3OC)nc2N1C1CCCC1 [BI2536]
responsiveness to the tested drugs (state of the organoids) ([1]; 10 nM): did differ depending on the presence or absence of the BRCA2 gene

O=C(c1cc(Cc2n[nH]c(=O)c3ccccc23)ccc1F)N1CCN(C(=O)C2CC2)CC1 [Olaparib]
responsiveness to the tested drugs (state of the organoids) ([1]; 10 μM): did differ depending on the presence or absence of the BRCA2 gene

CC(=O)/C=C/c1ccc2cc(O)cc(O)c2c1 [Resveratrone]
expression level of p53 [2]: increased | expression level of p53 [3]: did not increase | GFP / green fluorescence of dying cells ([4]; 200 μM): exhibited fluorescence | GFP / cell death ([4]; 500 μM): cell death occurred and GFP decreased | expression level of p53, normal vs cancer tendency [5]: this tendency was also found in the patient-derived organoids | effect of the drug on normal pancreatic organoids [6]: no effect

— patent US20210282378A1, “Mutant Mouse-Derived Pancreatic Organoid and Method for Evaluating Standardized Drug for Efficacy” (Seoul National University R&DB Foundation, priority 2018, published 2021)
